Measurements taken from US20160000721A1, “GASTRO-RETENTIVE FORMULATIONS” (priority 2012, published 2016).
Values after ≈ are worked out from the molar mass of the structure shown.

Tests used:
[1] = in vivo; cited from earlier work
[2] = Aqueous solubility of raltegravir at given pH; assay type: physicochemical
Excerpt: In one embodiment of the invention, the drug is raltegravir or pharmaceutically acceptable salt thereof. Raltegravir (N-(4-fluorobenzyl)-5-hydroxy-1-methyl-2-(1-methyl-1-{[(5-methyl-1,3,4-oxadiazol-2-yl)carbonyl]amino}ethyl)-6-oxo-1,6-dihydropyrimidine-4-carboxamide) belongs to a novel class of anti-retroviral drugs indicated for the treatment of human immunodeficiency virus (HIV-1) known as integrase strand inhibitors. See, e.g., U.S. Pat. No. 7,169,780. More particularly preferred is the anhydrous crystalline potassium salt of raltegravir, which is characterized by an X-ray powder diffraction pattern obtained using copper Kα radiation which comprises 2Θ values in degrees of 5.9, 20.0 and 20.6. See U.S. Pat. No. 7,754,731, herein incorporated by reference in its entirety. This form of raltegravir is the active pharmaceutical ingredient (API) in […]® tablets.

Cc1nnc(C(=O)NC(C)(C)c2nc(C(=O)NCc3ccc(F)cc3)c(O)c(=O)n2C)o1 [Raltegravir, N-(4-fluorobenzyl)-5-hydroxy-1-methyl-2-(1-methyl-1-{[(5-methyl-1,3,4-oxadiazol-2-yl)carbonyl]amino}ethyl)-6-oxo-1,6-dihydropyrimidine-4-carboxamide]
terminal half-life [1]: approximately 9 hours
α-phase half-life [1]: approximately 1 hour
solubility ([2]; aqueous buffer, pH range of 1-6): 20 µg/mL (≈ 45 µM)
solubility ([2]; pH 6.8, aqueous buffer): 480 µg/mL (≈ 1080 µM)
